Earlier results on 1 compound are cited in patent US12708613B2, “Methods for improving physical exercise performance” (NOMIO NUTRITION AB, priority 2020, dated 2026).

The test system of this data set is mice.

Regarding `C[S+]([O-])CCCCN=C=S` (centres unmarked) [sulforaphane, 1-Isothiocyanato-4-(methanesulfinyl)butane], for the setting “mice models”, the “effect on glucose levels” value was “no effect”. Besides, where the note is “mice, injected (intraperitoneally, 25 mg/kg body weight)”, the endurance entry is listed as “improved endurance”.
